According to patent publication US20070254863A1 (priority 2006, published 2007):
Like-named read-outs stand apart in the source and are kept apart here.

Tests used:
[1] = target: human cannabinoid CB2 receptor (Homo sapiens, UniProt P34972); assay: biochemical; format: binding
Method: 3. In Vitro Binding Affinity of the Test Compounds to CB2 Receptors
After incubation of a freshly prepared cell membrane preparation with the [^3H]-ligand, with or without the addition of the compounds described herein, separation of bound and free ligand is performed by filtration over glass-fiber filters. Radioactivity on the filter is measured by liquid scintillation counting.

[2] = target: T1, hamster SUR1 (Cricetus cricetus, UniProt Q09427); assay: In vitro binding affinity to rodent KATP channels: SUR1 ([3H]glibenclamide displacement, COS cell membranes)
T1 construct: expressed in transfected cells; host or cells: COS-1 cells, transient (pcDNA vector)
Method: 1. In Vitro Binding Affinity of the Test Compounds to Rodent KATP Channels
Competitive binding experiments were performed to characterize the affinity of the test compounds for the binding sites for sulfonylureas and KATP channel openers (KCOS) on hamster SUR1. To assess the affinity for the sulfonylurea site, membranes from COS-cells transiently expressing hamster SUR1 were incubated in the presence of [^3H]glibenclamide with increasing concentrations of test compounds. […] For each test compound four displacement curves were measured (+/−MgATP from the human and hamster isoform). Per curve 9-15 distinct concentrations were tested covering the relevant range. All measurements were repeated at least 5 times in independent experiments.
(§1) [^3H]glibenclamide (specific activity 51 Ci mmol^−1) was obtained from NEN (Dreieich, Germany). Where needed, stock solutions were prepared in dimethylsulfoxide with a final solvent concentration in the media below 1%.
(§2) SUR- or Kir6.x isoforms were used either subcloned in the pcDNA (hamster SUR1, mouse Kir6.2) or pCMV vector (rat SUR2A, SUR2B).
(§3) For transfection, the cells were incubated 4 hours in a Tris-buffered salt solution containing DNA (5-10 μg/ml) plus DEAE-dextran (1 mg/ml), 2 min in HEPES-buffered salt solution plus dimethylsulfoxide (10%) and 4 hours in DMEM-HG plus chloroquine (100 μM). Cells were then returned to DMEM-HG plus 10% FCS. […] For binding experiments, resuspended membranes (final protein concentration 5-50 μg/ml) were incubated in “Tris-buffer” (50 mM, pH 7.4) containing either [^3H]glibenclamide (final concentration 0.3 nM or 3 nM and nonspecific binding defined by 100 nM or 1 μM glibenclamide for SUR1 or SUR2Y1205S-isoforms, respectively) or [^3H]P1075 (final concentration 3 nM, nonspecific binding defined by 100 μM pinacidil) and increasing concentrations of the test compounds. The free Mg^2+ concentration were kept close to 0.7 mM. […] Incubations were carried out for 1 h at room temperature and were terminated by rapid filtration through Whatman GF/B filters.
(§4) The inhibition constant (Ki value) of the test substances was calculated from the respective IC50 value, and was stated as the negative logarithmic value thereof (pKi).

[3] = target: rat SUR2A (Rattus norvegicus, UniProt Q63563); assay: In vitro binding affinity to rodent KATP channels: SUR2A ([3H]P1075 / [3H]glibenclamide displacement, COS cell membranes)
Method: Therefore, two strategies can be used to detect binding to the sulfonylurea site on SUR2A.
Membranes from COS-cells transiently expressing rat SUR2A were incubated in the presence of the radioligands with increasing concentrations of test compounds as described above. […] For each test compound four displacement curves were measured (displacement of [^3H]P1075 from the rat isoform of the wild type receptor and displacement of [^3H]glibenclamide from the rat isoform of SUR2AY1205S). Per curve 9-15 distinct concentrations were tested covering the relevant range. All measurements were repeated at least 5 times in independent experiments.
as §1, §2, §3, §4

[4] = cloned human CB2 receptor expressed in CHO cells, read-out: Affinity to CB2 (converted)
[5] = hamster SUR1 in COS cell membranes, read-out: Affinity to SUR 1 (converted)
[6] = rat SUR2A in COS cell membranes

T1 sequence (Q09427 whole entry): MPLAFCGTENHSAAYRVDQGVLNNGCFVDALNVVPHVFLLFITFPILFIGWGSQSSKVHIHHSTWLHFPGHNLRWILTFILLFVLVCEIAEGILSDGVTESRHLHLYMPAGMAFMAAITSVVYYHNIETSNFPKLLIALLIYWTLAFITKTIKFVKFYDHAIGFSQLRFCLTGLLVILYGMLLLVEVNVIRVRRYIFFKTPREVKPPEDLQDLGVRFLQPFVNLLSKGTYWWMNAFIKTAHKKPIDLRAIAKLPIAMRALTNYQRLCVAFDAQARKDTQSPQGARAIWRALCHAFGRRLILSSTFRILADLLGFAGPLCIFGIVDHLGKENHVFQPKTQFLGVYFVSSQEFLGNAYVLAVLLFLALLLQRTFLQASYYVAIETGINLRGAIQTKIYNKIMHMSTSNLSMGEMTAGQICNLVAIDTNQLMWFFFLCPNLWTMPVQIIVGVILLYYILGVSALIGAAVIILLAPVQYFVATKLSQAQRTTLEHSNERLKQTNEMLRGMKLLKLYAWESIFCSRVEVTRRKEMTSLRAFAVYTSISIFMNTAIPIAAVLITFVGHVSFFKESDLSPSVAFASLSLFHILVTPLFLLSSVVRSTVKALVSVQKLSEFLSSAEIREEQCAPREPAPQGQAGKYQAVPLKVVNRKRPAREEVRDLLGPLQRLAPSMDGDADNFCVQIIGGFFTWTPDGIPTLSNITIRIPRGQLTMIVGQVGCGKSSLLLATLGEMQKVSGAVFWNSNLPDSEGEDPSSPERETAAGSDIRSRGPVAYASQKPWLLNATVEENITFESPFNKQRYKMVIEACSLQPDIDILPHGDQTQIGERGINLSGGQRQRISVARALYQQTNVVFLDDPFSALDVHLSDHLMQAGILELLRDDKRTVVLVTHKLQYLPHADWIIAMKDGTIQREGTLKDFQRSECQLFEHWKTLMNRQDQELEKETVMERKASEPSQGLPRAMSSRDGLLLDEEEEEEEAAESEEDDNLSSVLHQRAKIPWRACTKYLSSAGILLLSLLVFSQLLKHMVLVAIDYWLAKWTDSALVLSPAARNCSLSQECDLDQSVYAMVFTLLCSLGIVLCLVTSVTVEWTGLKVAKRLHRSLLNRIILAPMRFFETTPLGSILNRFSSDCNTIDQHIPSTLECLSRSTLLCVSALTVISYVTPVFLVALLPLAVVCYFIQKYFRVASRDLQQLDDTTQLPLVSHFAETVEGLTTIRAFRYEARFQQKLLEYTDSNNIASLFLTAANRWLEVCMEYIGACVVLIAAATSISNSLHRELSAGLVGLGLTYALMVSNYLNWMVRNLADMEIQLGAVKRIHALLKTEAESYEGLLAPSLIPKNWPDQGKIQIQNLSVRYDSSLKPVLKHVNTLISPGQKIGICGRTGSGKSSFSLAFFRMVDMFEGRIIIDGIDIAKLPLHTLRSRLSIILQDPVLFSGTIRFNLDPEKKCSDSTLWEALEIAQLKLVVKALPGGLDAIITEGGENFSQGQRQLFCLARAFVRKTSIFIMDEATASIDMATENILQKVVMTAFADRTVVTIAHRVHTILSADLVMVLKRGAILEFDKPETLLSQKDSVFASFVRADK
Chain of human cannabinoid CB2 receptor (P34972 whole entry): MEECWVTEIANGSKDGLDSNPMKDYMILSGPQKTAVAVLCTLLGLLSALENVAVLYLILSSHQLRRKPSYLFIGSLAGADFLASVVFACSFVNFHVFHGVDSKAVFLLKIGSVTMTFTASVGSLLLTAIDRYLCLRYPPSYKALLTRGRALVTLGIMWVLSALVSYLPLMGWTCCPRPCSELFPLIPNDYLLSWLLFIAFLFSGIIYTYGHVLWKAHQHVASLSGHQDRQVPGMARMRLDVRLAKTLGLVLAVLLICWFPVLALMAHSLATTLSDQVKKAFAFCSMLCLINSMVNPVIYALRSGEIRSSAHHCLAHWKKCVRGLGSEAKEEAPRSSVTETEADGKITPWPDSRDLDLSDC
Chain of rat SUR2A (Q63563 whole entry): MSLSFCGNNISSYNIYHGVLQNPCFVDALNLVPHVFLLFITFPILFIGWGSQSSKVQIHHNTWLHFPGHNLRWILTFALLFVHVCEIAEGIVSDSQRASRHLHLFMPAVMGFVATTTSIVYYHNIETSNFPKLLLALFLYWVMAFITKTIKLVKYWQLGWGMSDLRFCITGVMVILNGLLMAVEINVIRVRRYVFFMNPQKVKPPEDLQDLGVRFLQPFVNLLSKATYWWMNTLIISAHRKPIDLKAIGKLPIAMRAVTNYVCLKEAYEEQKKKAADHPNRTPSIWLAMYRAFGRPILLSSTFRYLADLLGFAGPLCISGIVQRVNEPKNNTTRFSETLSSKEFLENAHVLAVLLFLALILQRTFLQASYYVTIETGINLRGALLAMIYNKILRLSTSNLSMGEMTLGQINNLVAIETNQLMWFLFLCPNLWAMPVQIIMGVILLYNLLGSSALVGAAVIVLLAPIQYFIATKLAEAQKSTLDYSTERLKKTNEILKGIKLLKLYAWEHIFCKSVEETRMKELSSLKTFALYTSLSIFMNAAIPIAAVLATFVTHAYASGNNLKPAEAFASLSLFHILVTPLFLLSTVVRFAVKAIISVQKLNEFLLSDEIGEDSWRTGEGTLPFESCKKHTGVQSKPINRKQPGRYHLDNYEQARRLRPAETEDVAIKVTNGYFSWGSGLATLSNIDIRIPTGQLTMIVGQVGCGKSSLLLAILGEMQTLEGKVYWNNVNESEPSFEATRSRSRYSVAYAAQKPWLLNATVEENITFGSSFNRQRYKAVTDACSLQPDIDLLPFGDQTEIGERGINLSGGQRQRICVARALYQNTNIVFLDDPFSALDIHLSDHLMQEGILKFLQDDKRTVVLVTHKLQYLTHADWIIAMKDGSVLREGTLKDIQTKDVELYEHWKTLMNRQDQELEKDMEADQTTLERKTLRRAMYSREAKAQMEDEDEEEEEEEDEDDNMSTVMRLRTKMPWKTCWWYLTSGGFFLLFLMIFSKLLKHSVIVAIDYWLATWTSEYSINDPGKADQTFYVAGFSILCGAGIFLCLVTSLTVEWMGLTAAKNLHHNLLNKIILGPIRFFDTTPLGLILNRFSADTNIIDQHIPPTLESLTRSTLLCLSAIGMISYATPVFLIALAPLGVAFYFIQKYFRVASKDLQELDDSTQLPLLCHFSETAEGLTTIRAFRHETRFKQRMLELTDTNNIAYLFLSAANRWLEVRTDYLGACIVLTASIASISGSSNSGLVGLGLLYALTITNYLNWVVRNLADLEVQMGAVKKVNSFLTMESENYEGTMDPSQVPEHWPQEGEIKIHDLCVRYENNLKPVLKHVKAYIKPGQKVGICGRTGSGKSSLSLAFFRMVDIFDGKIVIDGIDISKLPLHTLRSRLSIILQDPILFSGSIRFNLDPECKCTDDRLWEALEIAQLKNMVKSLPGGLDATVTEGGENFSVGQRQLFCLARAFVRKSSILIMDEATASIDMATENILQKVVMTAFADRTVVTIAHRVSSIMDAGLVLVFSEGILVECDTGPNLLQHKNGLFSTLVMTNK

| Compound | Ki [1, 4] | Ki [2, 5] | pKi [3] | Ki [1] | pKi [3, 6] | Affinity to CB2 [1] | Ki [2] |
| --- | --- | --- | --- | --- | --- | --- | --- |
| CNC(=NS(=O)(=O)N1CCCCC1)N1CC(c2cccc(F)c2)C(c2ccc(Cl)cc2)=N1 (stereo not drawn) [Piperidine-1-sulfonic acid [3-(4-chloro-phenyl)-4-(3-fluoro-phenyl)-4,5-dihydro-pyrazol-1-yl]-methylamino-methyleneamide] | 0.794 µM | 31.6 µM | 6.3 |  |  |  |  |
| NC(=NS(=O)(=O)c1ccc(Cl)cc1)N1CC(c2ccccc2)C(c2ccc(Cl)cc2)=N1 (stereo not drawn) [N-{Amino-[3-(4-chloro-phenyl)-4-phenyl-4,5-dihydro-pyrazol-1-yl]-methylene}-4-chloro-benzenesulfonamide] |  | 1 µM | 5.1 | 0.398 µM |  |  |  |
| NC(Cc1ccc(Cl)c(Cl)c1)C(=O)N1CC(c2ccccc2)C(c2ccc(Cl)cc2)=N1 (stereo not drawn) [2-Amino-1-[3-(4-chloro-phenyl)-4-phenyl-4,5-dihydro-pyrazol-1-yl]-3-(3,4-dichloro-phenyl)-propan-1-one] | 0.631 µM | 3.98 µM | 4.8 |  |  |  |  |
| N=C(N)C1=NN(c2ccc(Cl)cc2)C(c2ccccc2)C1 (stereo not drawn) [1-(4-Chloro-phenyl)-5-phenyl-4,5-dihydro-1H-pyrazole-3-carboxamidine] | 0.501 µM | 100 µM | 4.0 |  |  |  |  |
| CCc1c(C(=O)NC2CCCCC2)nc(-c2ccc(C)n2C)n1-c1ccccc1 [2-(1,5-Dimethyl-1H-pyrrol-2-yl)-5-ethyl-1-phenyl-1H-imidazole-4-carboxylic acid cyclohexylamide] | 0.158 µM | 100 µM |  |  | 4.0 |  |  |
| N/C(=N\S(=O)(=O)c1ccc(Cl)cc1)N1C[C@@H](c2ccccc2)C(c2ccc(Cl)cc2)=N1 (stereo in doubt) [N-{Amino-[3-(4-chloro-phenyl)-4-phenyl-4,5-dihydro-pyrazol-1-yl]-methylene}-4-chloro-benzenesulfonamide] |  | 0.794 µM | 5.4 | 0.158 µM |  |  |  |
| CC(C)(CO)CN/C(=N\S(=O)(=O)c1ccc(Cl)cc1)N1CC(c2ccccc2)C(c2ccc(Cl)cc2)=N1 (stereo not drawn) [4-Chloro-N-[[3-(4-chloro-phenyl)-4-phenyl-4,5-dihydro-pyrazol-1-yl]-(3-hydroxy-2,2-dimethyl-propylamino)-methylene]-benzenesulfonamide] | 0.794 µM | 31.6 µM | 5.4 |  |  |  |  |
| O=C(NN1CCCCC1)c1nc(-c2ccc(Cl)cc2Cl)n(-c2ccc(Cl)cc2)c1CO [1-(4-Chloro-phenyl)-2-(2,4-dichloro-phenyl)-5-hydroxymethyl-1H-imidazole-4-carboxylic acid piperidin-1-ylamide] | 0.631 µM | 100 µM | 4.7 |  |  |  |  |
| Cc1c(C(=O)NN2CCCCCC2)nc(-c2ccc(Cl)cc2Cl)n1-c1ccc(Cl)cc1 [1-(4-Chloro-phenyl)-2-(2,4-dichloro-phenyl)-5-methyl-1H-imidazole-4-carboxylic acid azepan-1-ylamide] | 0.0251 µM | 6.31 µM | 5.7 |  |  |  |  |
| O=C(NN1CCCCC1)c1nc(-c2ccc(Cl)cc2Cl)n(-c2ccc(Cl)cc2)c1CF [1-(4-Chloro-phenyl)-2-(2,4-dichloro-phenyl)-5-fluoromethyl-1H-imidazole-4-carboxylic acid piperidin-1-ylamide] | 0.794 µM | 6.31 µM | 5.5 |  |  |  |  |
| Cc1c(C=C(c2cc(F)cc(F)c2)S(C)(=O)=O)nn(-c2ccc(Cl)cc2Cl)c1-c1ccc(Br)cc1 [5-(4-Bromo-phenyl)-1-(2,4-dichloro-phenyl)-3-(2-(3,5-difluoro-phenyl)-2-methanesulfonyl-vinyl]-4-methyl-1H-pyrazole] | 1.26 µM | 100 µM | 4.0 |  |  |  |  |
| CSc1c(C(=O)NN2CCCCC2)nc(-c2ccc(Cl)cc2Cl)n1-c1ccc(Cl)cc1 [1-(4-Chloro-phenyl)-2-(2,4-dichloro-phenyl)-5-methylsulfanyl-1H-imidazole-4-carboxylic acid piperidin-1-ylamide] | 1 µM | 7.94 µM | 5.6 |  |  |  |  |
| CCc1c(C(=O)NN2CCCCC2)nc(-c2ncccc2C)n1-c1ccc(Cl)cc1 [1-(4-Chloro-phenyl)-5-ethyl-2-(3-methyl-pyridin-2-yl)-1H-imidazole-4-carboxylic acid piperidin-1-ylamide] | 0.251 µM | 100 µM | 4.8 |  |  |  |  |
| Cc1c(C(=O)NN2CCCCC2)nc(-c2ccc(Cl)cc2Cl)n1-c1ccccn1 [2-(2,4-Dichloro-phenyl)-5-methyl-1-pyridin-2-yl-1H-imidazole-4-carboxylic acid piperidin-1-ylamide] | 0.631 µM | 100 µM | 4.1 |  |  |  |  |
| O=S(=O)(N=C(NCc1cccnc1)N1CC(c2ccccc2)C(c2ccc(Cl)cc2)=N1)c1ccc(Cl)cc1 (stereo not drawn) [4-Chloro-N-{[3-(4-chloro-phenyl)-4-phenyl-4,5-dihydro-pyrazol-1-yl]-[(pyridin-3-ylmethyl)-amino]-methylene}-benzenesulfonamide] | 0.501 µM | 1.26 µM | 5.7 |  |  |  |  |
| Cn1c(C(=O)NN2CCCCC2)nc(-c2cc(Cl)ccc2Cl)c1-c1ccc(Cl)cc1 [5-(4-Chloro-phenyl)-4-(2,5-dichloro-phenyl)-1-methyl 1H-imidazole-2-carboxylic acid piperidin-1-ylamide] | 0.398 µM | 25.1 µM | 5.0 |  |  |  |  |
| CCc1c(C(=O)NN2CCCCC2)nc(-c2ccc(Cl)cc2Cl)n1-c1ccc(Cl)cc1 [1-(4-Chloro-phenyl)-2-(2,4-dichloro-phenyl)-5-ethyl-1H-imidazol-4-carboxylic acid piperidin-1-ylamide] |  | 5.01 µM | 5.5 | 0.501 µM |  |  |  |
| O=C(NN1CCCCC1)c1cn(-c2ccc(Cl)cc2)c(-c2ccc(Cl)cc2Cl)n1 [1-(4-Chloro-phenyl)-2-(2,4-dichloro-phenyl)-1H-imidazole-4-carboxylic acid piperidin-1-ylamide] | 0.631 µM | 31.6 µM | 5.3 |  |  |  |  |
| CCc1c(C(=O)NC2CCCCC2)nc(-c2ccc(Cl)cc2Cl)n1-c1ccc(Br)cc1 [1-(4-Bromo-phenyl)-2-(2,4-dichloro-phenyl)-5-ethyl-1H-imidazole-4-carboxylic acid cyclohexylamide] | 0.2 µM | 100 µM | 5.1 |  |  |  |  |
| O=C(NN1CCCCC1)C1=NN(c2ccc(Cl)cc2Cl)C(c2ccc(Cl)cc2)C1 (stereo not drawn) [5-(4-Chloro-phenyl)-1-(2,4-dichloro-phenyl)-4,5-dihydro-1H-pyrazole-3-carboxylic acid piperidine-1-ylamide] | 0.794 µM | 3.98 µM | 5.6 |  |  |  |  |
| CSc1c(C(=O)NC2CCCCC2)nc(-c2ccc(Cl)cc2Cl)n1-c1ccc(Cl)cc1 [1-(4-Chloro-phenyl)-2-(2,4-dichloro-phenyl)-5-methylsulfanyl-1H-imidazole-4-carboxylic acid cyclohexylamide] |  | 0.501 µM |  |  | 5.8 | 6.6 |  |
| CCc1c(C(=O)NC2CCCCC2)nc(-c2ncccc2C)n1-c1ccc(Cl)cc1 [1-(4-Chloro-phenyl)-5-ethyl-2-(3-methyl-pyridin-2-yl)-1H-imidazole-4-carboxylic acid cyclohexylamide] |  |  | 5.5 | 0.794 µM |  |  | 100 µM |
| C[C@H](NS(C)(=O)=O)c1ccc(S(=O)(=O)c2ccc(Cl)cc2S(=O)(=O)c2ccccc2F)cc1 [N-(1-{4-[4-Chloro-2-(2-fluoro-benzenesulfonyl)-benzenesulfonyl]-phenyl}-ethyl)-methanesulfonamide, reference compound] |  | 1.26 µM | 4.7 | 0.000501 µM |  |  |  |
| CN1CCC(CNC(=NS(=O)(=O)c2ccc(Cl)cc2)N2CC(c3ccccc3)C(c3ccc(Cl)cc3)=N2)C1 (stereo not drawn) [4-Chloro-N-{[3-(4-chloro-phenyl)-4-phenyl-4,5-dihydro-pyrazol-1-yl]-[(1-methyl-pyrrolidin-3-ylmethyl)-amino]-methylene]-benzenesulfonamide] | 1 µM | 1 µM | 4.8 |  |  |  |  |
